# Data published in paper PMC10066365, “Nemacol is a small molecule inhibitor of C. elegans vesicular acetylcholine transporter with anthelmintic potential” (Nature Communications, 2023).
# Values joined by “and” are separate entries in the source; they are usually repeats but may differ in a detail not shown here. Equal entries are not always repeated.
# How the values were obtained:
# [1] = tested on: C. elegans; experiment: C. elegans motor phenotype scoring on solid media (Punc/jerky-unc, coiled, paralyzed), wild-type young adults; type: in vivo, Caenorhabditis elegans; settings: for atypical locomotion (number of animals) / coiled (number of animals) / no phene (number of animals) / paralyzed (number of animals) / any phene: mean % fraction of young adults exhibiting any phenotype (coiled, jerky-Unc or paralyzed): one hour; for atypical locomotion (number of animals) / coiled (number of animals) / no phene (number of animals) / paralyzed (number of animals): young adults, 20 animals per trial, single technical replicate; for any phene: mean % fraction of young adults exhibiting any phenotype (coiled, jerky-Unc or paralyzed): mean of three biological replicates; for EC50: Caenorhabditis elegans, any motor phenotype after 1 h on solid media, ± 95% CI, read-out: C. elegans - motor disruption EC50
# [2] = tested on: Dirofilaria immitis microfilariae; experiment: Dirofilaria immitis microfilariae immobility assay (DiroImager, 72 h); settings: for % effect (motility), DIROIM MF: Dirofilaria immitis microfilariae
# How it was run: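 About 250 freshly purified microfilariae of the Missouri isolate per well in supplemented RPMI 1640, exposed to compound for 72 h. Motility scored by automated whole-plate optical imaging; medium with 1% DMSO as negative control.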
# [3] = tested on: Pristionchus pacificus; experiment: Pristionchus pacificus motor disruption dose-response on solid media, 1 h; settings: for EC50: Pristionchus pacificus, 1 h, read-out: P. pacificus motor disruption EC50; for mean % any phene: any phenotype (coiled, jerky-Unc or paralyzed) at one hour; for mean % any phene / mean % any phene (coiled, jerky-Unc or paralyzed): mean of three biological replicates; for rep 1 no phene / rep 1 paralyzed / rep 2 atypical locomotion / rep 2 coiled / rep 2 no phene / rep 2 paralyzed / rep 3 atypical locomotion / rep 3 no phene / rep 3 paralyzed / rep 1 atypical locomotion / rep 1 coiled / rep 3 coiled: count of 20 animals per trial, one hour; for mean % any phene (coiled, jerky-Unc or paralyzed): Pristionchus pacificus young adults
# [4] = tested on: Dirofilaria immitis L3/L4; experiment: Dirofilaria immitis L3/L4 motility assay (DiroImager, 72 h); settings: Dirofilaria immitis L4
smiles,measurement,setting,value
Fc1ccccc1N1CCN(C2CCCCCC2)CC1 [Nemacol-56],atypical locomotion (number of animals),[1]; 3.75uM,2 and 3 and 12 and 10
same,coiled (number of animals),[1]; 3.75uM,0
same,no phene (number of animals),[1]; 3.75uM,18 and 17 and 8 and 10
same,paralyzed (number of animals),[1]; 3.75uM,0
same,"any phene: mean % fraction of young adults exhibiting any phenotype (coiled, jerky-Unc or paralyzed)",[1]; 3.75uM,25.8333%
same,atypical locomotion (number of animals),[1]; 15uM,12 and 18 and 7 and 14 and 16
same,coiled (number of animals),[1]; 15uM,0 and 2
same,no phene (number of animals),[1]; 15uM,8 and 2 and 13 and 4
same,paralyzed (number of animals),[1]; 15uM,0 and 2
same,"any phene: mean % fraction of young adults exhibiting any phenotype (coiled, jerky-Unc or paralyzed)",[1]; 15uM,69.1667%
same,atypical locomotion (number of animals),[1]; 60uM,2 and 3 and 10 and 0
same,coiled (number of animals),[1]; 60uM,5 and 6 and 4 and 3 and 8
same,no phene (number of animals),[1]; 60uM,0
same,paralyzed (number of animals),[1]; 60uM,13 and 11 and 6 and 14 and 15 and 12
same,"any phene: mean % fraction of young adults exhibiting any phenotype (coiled, jerky-Unc or paralyzed)",[1]; 60uM,100%
same,EC50,[1],8 ± 3.3 µM
same,"% effect (motility), DIROIM MF",[2]; 0.016 µM,0%
same,"% effect (motility), DIROIM MF",[2]; 0.08 µM,0%
same,"% effect (motility), DIROIM MF",[2]; 0.4 µM,0%
same,"% effect (motility), DIROIM MF",[2]; 2 µM,0%
same,"% effect (motility), DIROIM MF",[2]; 10 µM,0%
same,EC50,[3],38.4 ± 4.7 µM
same,mean % any phene,[3]; conc 3.75,2.5%
same,rep 1 no phene,[3]; conc 3.75,20 and 18
same,rep 1 paralyzed,[3]; conc 3.75,0
same,rep 2 atypical locomotion,[3]; conc 3.75,0
same,rep 2 coiled,[3]; conc 3.75,0
same,rep 2 no phene,[3]; conc 3.75,20
same,rep 2 paralyzed,[3]; conc 3.75,0
same,rep 3 atypical locomotion,[3]; conc 3.75,0
same,rep 3 no phene,[3]; conc 3.75,20 and 19
same,rep 3 paralyzed,[3]; conc 3.75,0
same,mean % any phene,[3]; conc 15,0.8333%
same,rep 1 atypical locomotion,[3]; conc 15,0
same,rep 1 coiled,[3]; conc 15,0
same,rep 1 no phene,[3]; conc 15,20
same,rep 1 paralyzed,[3]; conc 15,0
same,rep 2 coiled,[3]; conc 15,0
same,rep 2 no phene,[3]; conc 15,19 and 20
same,rep 2 paralyzed,[3]; conc 15,0
same,rep 3 atypical locomotion,[3]; conc 15,0
same,rep 3 coiled,[3]; conc 15,0
same,rep 3 no phene,[3]; conc 15,20
same,rep 3 paralyzed,[3]; conc 15,0
same,mean % any phene,[3]; conc 60,85%
same,rep 1 atypical locomotion,[3]; conc 60,10
same,rep 1 coiled,[3]; conc 60,4 and 2
same,rep 1 no phene,[3]; conc 60,2
same,rep 1 paralyzed,[3]; conc 60,4 and 6
same,rep 2 no phene,[3]; conc 60,5 and 3
same,rep 3 atypical locomotion,[3]; conc 60,14 and 13
same,rep 3 coiled,[3]; conc 60,3 and 4
same,rep 3 no phene,[3]; conc 60,3
same,rep 3 paralyzed,[3]; conc 60,0
same,"% effect (motility), DIROIM L4",[4]; 10 µM,0%
same,"% effect (motility), DIROIM L4",[4]; 50 µM,15%
c1cc(N2CCN(CC3CCC3)CC2)ccn1 [Nemacol-60],atypical locomotion (number of animals),[1]; 3.75uM,0 and 2 and 3
same,coiled (number of animals),[1]; 3.75uM,0
same,no phene (number of animals),[1]; 3.75uM,20 and 18 and 17
same,paralyzed (number of animals),[1]; 3.75uM,0
same,"any phene: mean % fraction of young adults exhibiting any phenotype (coiled, jerky-Unc or paralyzed)",[1]; 3.75uM,4.167%
same,atypical locomotion (number of animals),[1]; 15uM,0 and 10 and 15
same,coiled (number of animals),[1]; 15uM,0
same,no phene (number of animals),[1]; 15uM,20 and 9 and 5
same,paralyzed (number of animals),[1]; 15uM,0 and 1
same,"any phene: mean % fraction of young adults exhibiting any phenotype (coiled, jerky-Unc or paralyzed)",[1]; 15uM,21.6667%
same,atypical locomotion (number of animals),[1]; 60uM,0 and 2 and 4 and 16 and 14
same,coiled (number of animals),[1]; 60uM,0
same,no phene (number of animals),[1]; 60uM,20 and 18 and 16 and 4 and 6
same,paralyzed (number of animals),[1]; 60uM,0
same,"any phene: mean % fraction of young adults exhibiting any phenotype (coiled, jerky-Unc or paralyzed)",[1]; 60uM,30%
same,EC50,[1],> 60 µM
same,"% effect (motility), DIROIM MF",[2]; 0.016 µM,0%
same,"% effect (motility), DIROIM MF",[2]; 0.08 µM,0%
same,"% effect (motility), DIROIM MF",[2]; 0.4 µM,0%
same,"% effect (motility), DIROIM MF",[2]; 2 µM,0%
same,"% effect (motility), DIROIM MF",[2]; 10 µM,0%
same,mean % any phene,[3]; conc 3.75,0%
same,rep 1 atypical locomotion,[3]; conc 3.75,0
same,rep 1 coiled,[3]; conc 3.75,0
same,rep 1 no phene,[3]; conc 3.75,20
same,rep 1 paralyzed,[3]; conc 3.75,0
same,rep 2 atypical locomotion,[3]; conc 3.75,0
same,rep 2 coiled,[3]; conc 3.75,0
same,rep 2 no phene,[3]; conc 3.75,20
same,rep 2 paralyzed,[3]; conc 3.75,0
same,rep 3 atypical locomotion,[3]; conc 3.75,0
same,rep 3 coiled,[3]; conc 3.75,0
same,rep 3 no phene,[3]; conc 3.75,20
same,rep 3 paralyzed,[3]; conc 3.75,0
same,mean % any phene,[3]; conc 15,0%
same,rep 1 atypical locomotion,[3]; conc 15,0
same,rep 1 coiled,[3]; conc 15,0
same,rep 1 no phene,[3]; conc 15,20
same,rep 1 paralyzed,[3]; conc 15,0
same,rep 2 atypical locomotion,[3]; conc 15,0
same,rep 2 coiled,[3]; conc 15,0
same,rep 2 no phene,[3]; conc 15,20
same,rep 2 paralyzed,[3]; conc 15,0
same,rep 3 atypical locomotion,[3]; conc 15,0
same,rep 3 coiled,[3]; conc 15,0
same,rep 3 no phene,[3]; conc 15,20
same,rep 3 paralyzed,[3]; conc 15,0
same,mean % any phene,[3]; conc 60,0%
same,rep 1 atypical locomotion,[3]; conc 60,0
same,rep 1 coiled,[3]; conc 60,0
same,rep 1 no phene,[3]; conc 60,20
same,rep 1 paralyzed,[3]; conc 60,0
same,rep 2 atypical locomotion,[3]; conc 60,0
same,rep 2 coiled,[3]; conc 60,0
same,rep 2 no phene,[3]; conc 60,20
same,rep 2 paralyzed,[3]; conc 60,0
same,rep 3 atypical locomotion,[3]; conc 60,0
same,rep 3 coiled,[3]; conc 60,0
same,rep 3 no phene,[3]; conc 60,20
same,rep 3 paralyzed,[3]; conc 60,0
same,"% effect (motility), DIROIM L4",[4]; 10 µM,0%
same,"% effect (motility), DIROIM L4",[4]; 50 µM,10%
O=[N+]([O-])c1ccc(N2CCN(C3CCCC3)CC2)cc1 [Nemacol-61],atypical locomotion (number of animals),[1]; 3.75uM,0 and 1
same,coiled (number of animals),[1]; 3.75uM,0 and 17 and 13
same,no phene (number of animals),[1]; 3.75uM,20 and 19 and 3 and 7
same,paralyzed (number of animals),[1]; 3.75uM,0
same,"any phene: mean % fraction of young adults exhibiting any phenotype (coiled, jerky-Unc or paralyzed)",[1]; 3.75uM,25.8333%
same,atypical locomotion (number of animals),[1]; 15uM,10 and 13 and 12 and 2 and 4
same,coiled (number of animals),[1]; 15uM,0 and 1 and 2 and 18 and 16
same,no phene (number of animals),[1]; 15uM,8 and 7 and 5 and 4 and 0
same,paralyzed (number of animals),[1]; 15uM,2 and 0 and 4
same,"any phene: mean % fraction of young adults exhibiting any phenotype (coiled, jerky-Unc or paralyzed)",[1]; 15uM,80%
same,atypical locomotion (number of animals),[1]; 60uM,0 and 17 and 18
same,coiled (number of animals),[1]; 60uM,19 and 12 and 13 and 3 and 2
same,no phene (number of animals),[1]; 60uM,0
same,paralyzed (number of animals),[1]; 60uM,1 and 8 and 7 and 0
same,"any phene: mean % fraction of young adults exhibiting any phenotype (coiled, jerky-Unc or paralyzed)",[1]; 60uM,100%
same,EC50,[1],6.8 ± 4.1 µM
same,"% effect (motility), DIROIM MF",[2]; 0.016 µM,0%
same,"% effect (motility), DIROIM MF",[2]; 0.08 µM,0%
same,"% effect (motility), DIROIM MF",[2]; 0.4 µM,0%
same,"% effect (motility), DIROIM MF",[2]; 2 µM,0%
same,"% effect (motility), DIROIM MF",[2]; 10 µM,40%
same,EC50,"[2]; Dirofilaria immitis, 72 h, read-out: Dirofilaria immitis filariae EC50",11 µM
same,"mean % any phene (coiled, jerky-Unc or paralyzed)","[3]; conc 3.75, observed at one hour",12.5%
same,"mean % any phene (coiled, jerky-Unc or paralyzed)","[3]; conc 15, observed at one hour",9.167%
same,"mean % any phene (coiled, jerky-Unc or paralyzed)","[3]; conc 60, observed at one hour",88.3333%
same,EC50,[3],31.2 ± 9.6 µM
same,"% effect (motility), DIROIM L4",[4]; 2 µM,0%
same,"% effect (motility), DIROIM L4",[4]; 10 µM,0%
same,"% effect (motility), DIROIM L4",[4]; 50 µM,20%
